{"source": "patent US10933145B2", "about": "“Compositions and methods for reducing the risk of radiocontrast-induced nephropathy” (UNIVERSITY OF PITTSBURGH—OF THE COMMONWEALTH SYSTEM OF …, priority 2016, dated 2021)", "key": {"[1]": {"system": "NFAT activity in MDCK cells", "assay": "NFAT-luciferase reporter activity in MDCK cells", "type": "cell-based, Canine", "details": "16 percent radiocontrast, 3 hours, MDCK cells infected with Ad-NFAT-luciferase; FIG. 2", "protocol": "FIG. 2. NFAT (Nuclear Factor of Activated T-cells) activity in MDCK cells measured via NFAT-luciferase expression at increasing concentrations of radiocontrast. MDCK were engineered to contain a reporter for inflammatory NFAT activity. In particular, MDCK cells were infected with Ad-NFAT-luciferase and treated for 3 hours with […] (0-16%) of iohexol radiocontrast. NFAT activity in MDCK cells was measured via NFAT-luciferase expression."}, "[2]": {"system": "NFκB activity in MDCK cells", "assay": "NFκB activity in MDCK cells exposed to radiocontrast, with or without calcineurin inhibitor", "type": "cell-based, Canine", "details": "MDCK cells treated with 16% radiocontrast; FIG. 4A", "excerpt": "FIG. 4A-B. NFκB activity in MDCK cells exposed to increasing amounts of radiocontrast and treated with (A) FK506 (gray bar) or DMSO (as negative control, black bar) or (B) Cyclosporin A.\nNFκB activity in MDCK cells exposed to increasing amounts of radiocontrast and treated with either FK506 (FIG. 4A) or cyclosporin A (FIG. 4B)."}}, "data": [{"smiles": "CC(=O)N(CC(O)CO)c1c(I)c(C(=O)NCC(O)CO)c(I)c(C(=O)NCC(O)CO)c1I", "note": "(centres unmarked) [iohexol radiocontrast, iohexol]", "values": [{"measurement": "NFAT activation relative to control", "setting": "[1]", "value": 40, "unit": "fold"}, {"measurement": "increase in NFκB activation", "setting": "[2]", "value": "approximately 5 fold"}]}]}
